The source of these data is US9260429B2, “Pyrido[3,4-B]indoles and methods of use” (Medivation Technologies, Inc., priority 2008, dated 2016).

In assay [1] the target is T1, human recombinant serotonin (5-Hydroxytryptamine) 5-HT2A receptor (Homo sapiens, UniProt P28223).
T1 construct: expressed in transfected cells; host or cells: CHO-K1 cells
Kind of assay: Serotonin 5-HT2A radioligand binding ([3H]Ketanserin). The following applies: 1 h; read-out: Percent Inhibition of ligand binding Serotonin (1 μM ligand concentration) 5-HT2A. On the procedure:
To evaluate in radioligand binding assays the activity of compounds of the invention, human recombinant serotonin (5-Hydroxytryptamine) 5-HT2A receptor expressed in Chinese hamster ovary (CHO-K1) cells (Bonhaus, D. W. et al. Br. J. Pharmacol. 115:622, 1995; Saucier, C. and Albert, P. R., J. Neurochem. 68:1998, 1997) in a 50 mM Tris-HCl buffer, pH 7.4, was used. Compounds of the invention were incubated with 0.5 nM [^3H]Ketanserin for 60 minutes at 25° C. Non-specific binding was estimated in the presence of 1 μM Mianserin. Receptor proteins were filtered and washed, the filters were then counted to determine [^3H]Ketanserin specifically bound. Compounds were screened at 1 μM or lower, using 1% DMSO as vehicle. Biochemical assay results are presented as the percent inhibition of specific binding in Table 5.

Assay [2] deals with T2, human recombinant histamine H2 receptor (Homo sapiens, UniProt P25021).
T2 construct: expressed in transfected cells; host or cells: CHO-K1 cells
The assay can be described thus: Histamine H2 radioligand binding ([125I]Aminopotentidine). Particulars: 1 μM; inhibition of specific [125I]Aminopotentidine binding; read-out: Binding data (Percentage Inhibition) Histamine Binding (1 μM) H2. How it is done: To evaluate in radioligand binding assays the activity of compounds of the invention, human recombinant histamine H2 receptor expressed in Chinese hamster ovary (CHO) K1 cells (Ruat, M., Proc. Natl. Acad. Sci. USA. 87(5):1658, 1990) in a 50 mM Phosphate buffer, pH 7.4 was used. Compounds of the invention were incubated with 0.1 nM [^125I]Aminopotentidine for 120 minutes at 25° C. Non-specific binding was estimated in the presence of 3 μM Tiotidine. Receptor proteins were filtered and washed, the filters were then counted to determine [^125I]Aminopotentidine specifically bound. Compounds were screened at 1 μM or lower, using 1% DMSO as vehicle. Biochemical assay results are presented as the percent inhibition of specific binding in Table 3.

Assay [3] addresses T3, human recombinant serotonin (5-Hydroxytryptamine) 5-HT6 receptor (Homo sapiens, UniProt P50406).
T3 construct: expressed in transfected cells; host or cells: human HeLa cells
Kind of assay: Serotonin 5-HT6 radioligand binding ([3H]LSD). The following applies: 2 h; read-out: Percent Inhibition of ligand binding Serotonin (1 μM ligand concentration) 5-HT6. On the procedure: To evaluate in radioligand binding assays the activity of compounds of the invention, human recombinant serotonin (5-Hydroxytryptamine) 5-HT6 receptor expressed in human HeLa cells (Monsma, F. J. Jr. et al., Mol. Pharmacol. 43:320, 1993) in a modified Tris-HCl buffer (50 mM Tris-HCl, pH 7.4, 150 mM NaCl, 2 mM Ascorbic Acid, 0.001% BSA) was used. Compounds of the invention were incubated with 1.5 nM [3H]Lysergic acid diethylamide (LSD) for 120 minutes at 37° C. Non-specific binding was estimated in the presence of […] Serotonin (5-HT). Receptor proteins were filtered and washed, the filters were then counted to determine [3H]LSD specifically bound. Compounds were screened at 1 μM or lower, using 1% DMSO as vehicle. Biochemical assay results are presented as the percent inhibition of specific binding in Table 5.

The target of assay [4] is T4, human recombinant serotonin (5-Hydroxytryptamine) 5-HT7 receptor (Homo sapiens, UniProt P34969).
T4 construct: expressed in transfected cells; host or cells: CHO cells
Kind of assay: Serotonin 5-HT7 radioligand binding ([3H]LSD). The following applies: 2 h; read-out: Percent Inhibition of ligand binding Serotonin (1 μM ligand concentration) 5-HT7. How it is done:
To evaluate in radioligand binding assays the activity of compounds of the invention, human recombinant serotonin (5-Hydroxytryptamine) 5-HT7 receptor expressed in Chinese hamster ovary (CHO) cells (Roth, B. L. et al., J. Pharmacol. Exp. Ther. 268:1403, 1994; Shen, Y. et al., J. Biol. Chem. 268:18200, 1993) in a modified Tris-HCl buffer (50 mM Tris-HCl, pH 7.4, 10 mM MgCl2, 0.5 mM EDTA) was used. Compounds of invention were incubated with 5.5 nM [^3H]Lysergic acid diethylamide (LSD) for 2 hours at 25° C. Non-specific binding was estimated in the presence of […] Serotonin (5-HT). Receptor proteins were filtered and washed, the filters were then counted to determine [^3H]LSD specifically bound. Compounds were screened at 1 μM or lower, using 1% DMSO as vehicle. Biochemical assay results are presented as the percent inhibition of specific binding in Table 5.

In assay [5] the target is T5, human recombinant histamine H1 receptor (Homo sapiens, UniProt P35367).
T5 construct: expressed in transfected cells; host or cells: CHO cells
The assay can be described thus: Histamine H1 radioligand binding ([3H]Pyrilamine). The following applies: 1 μM; read-out: Binding data (Percentage Inhibition) Histamine Binding (1 μM) H1. How it is done:
To evaluate in radioligand binding assays the activity of compounds of the invention, human recombinant histamine H1 receptor expressed in Chinese hamster ovary (CHO) cells (De Backer, M. D. et al., Biochem. Biophys. Res. Comm. 197(3):1601, 1993) in a modified Tris-HCl buffer (50 mM Tris-HCl, pH 7.4, 2 mM MgCl2, 100 mM NaCl, 250 mM Sucrose) was used. Compounds of the invention were incubated with 1.2 nM [^3H]Pyrilamine for 180 minutes at 25° C. Non-specific binding was estimated in the presence of 1 μM pyrilamine. Receptor proteins were filtered and washed, the filters were then counted to determine [^3H]Pyrilamine specifically bound. […] Biochemical assay results are presented as the percent inhibition of specific binding in Table 3.

Assay [6] addresses T6, human recombinant serotonin (5-Hydroxytryptamine) 5-HT2C receptor (Homo sapiens, UniProt P28335).
T6 construct: expressed in transfected cells; host or cells: CHO-K1 cells
T6 sequence (P28335 33-458): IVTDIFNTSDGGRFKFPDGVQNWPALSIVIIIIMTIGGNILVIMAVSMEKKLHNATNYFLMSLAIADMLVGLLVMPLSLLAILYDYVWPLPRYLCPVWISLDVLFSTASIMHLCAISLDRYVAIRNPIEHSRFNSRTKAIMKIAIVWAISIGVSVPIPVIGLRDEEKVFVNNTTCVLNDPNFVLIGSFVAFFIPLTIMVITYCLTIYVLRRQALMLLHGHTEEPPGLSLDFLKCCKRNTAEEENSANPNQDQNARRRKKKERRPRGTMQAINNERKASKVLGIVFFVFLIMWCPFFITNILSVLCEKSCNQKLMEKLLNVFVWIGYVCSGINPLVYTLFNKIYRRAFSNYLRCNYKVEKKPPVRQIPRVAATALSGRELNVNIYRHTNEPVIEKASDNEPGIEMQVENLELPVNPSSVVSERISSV
Kind of assay: Serotonin 5-HT2C radioligand binding ([3H]Mesulergine). Particulars: 1 h; read-out: Percent Inhibition of ligand binding Serotonin (1 μM ligand concentration) 5-HT2C. How it is done:
Compounds of the invention were incubated with 1 nM [^3H]Mesulergine for 60 minutes at 25° C. Non-specific binding was estimated in the presence of 1 μM Mianserin. Receptor proteins were filtered and washed, the filters were then counted to determine [^3H]Mesulergine specifically bound. […] Biochemical assay results are presented as the percent inhibition of specific binding in Table 5.

Assay [7] deals with T7, human recombinant dopamine D2L receptor (Homo sapiens, UniProt P14416).
T7 construct: expressed in transfected cells; host or cells: CHO cells
The assay can be described thus: Dopamine D2L radioligand binding ([3H]Spiperone). The following applies: 2 h, 1 μM ligand conc.; read-out: Percent Inhibition of ligand binding Dopamine (1 μM ligand conc.) D2L. How it is done: To evaluate in radioligand binding assays the activity of compounds of the invention, human recombinant dopamine D2L receptor expressed in Chinese hamster ovary (CHO) cells (Grandy, D. K. et al. Proc. Natl. Acad. Sci. USA. 86:9762, 1989; Hayes, G. et al., Mol. Endocrinol. 6:920, 1992) in a modified Tris-HCl buffer (50 mM Tris-HCl, pH 7.4, 1.4 mM Ascorbic Acid, 0.001% BSA, 150 mM NaCl) was used. Compounds of the invention were incubated with 0.16 nM [^3H]Spiperone for 120 minutes at 25° C. Non-specific binding was estimated in the presence of […] Haloperidol. Receptor proteins were filtered and washed, the filters were then counted to determine [^3H]Spiperone specifically bound. Compounds were screened at 1 μM or lower, using 1% DMSO as vehicle. Biochemical assay results are presented as the percent inhibition of specific binding in Table 4.

Assay [8] has as its system cells treated with ionomycin. The following applies: after treatment with the cell toxin ionomycin; dose dependent; cited from earlier work.
For assay [9], the system named is brain cells (neurons). Particulars: preclinical models of Alzheimer's disease and Huntington's disease; cited from earlier work.
The test system of assay [10] is neuronal cells. Particulars: cited from earlier work.

T2 sequence (P25021 whole entry): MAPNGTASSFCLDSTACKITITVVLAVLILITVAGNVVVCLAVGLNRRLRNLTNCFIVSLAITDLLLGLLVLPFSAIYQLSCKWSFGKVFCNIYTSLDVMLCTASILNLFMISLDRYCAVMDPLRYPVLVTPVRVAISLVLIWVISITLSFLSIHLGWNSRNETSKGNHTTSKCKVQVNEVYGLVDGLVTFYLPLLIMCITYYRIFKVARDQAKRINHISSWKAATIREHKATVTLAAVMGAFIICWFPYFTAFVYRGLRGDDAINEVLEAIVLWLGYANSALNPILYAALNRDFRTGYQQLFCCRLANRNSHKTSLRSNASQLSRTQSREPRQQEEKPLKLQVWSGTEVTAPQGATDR
T3 sequence (P50406 whole entry): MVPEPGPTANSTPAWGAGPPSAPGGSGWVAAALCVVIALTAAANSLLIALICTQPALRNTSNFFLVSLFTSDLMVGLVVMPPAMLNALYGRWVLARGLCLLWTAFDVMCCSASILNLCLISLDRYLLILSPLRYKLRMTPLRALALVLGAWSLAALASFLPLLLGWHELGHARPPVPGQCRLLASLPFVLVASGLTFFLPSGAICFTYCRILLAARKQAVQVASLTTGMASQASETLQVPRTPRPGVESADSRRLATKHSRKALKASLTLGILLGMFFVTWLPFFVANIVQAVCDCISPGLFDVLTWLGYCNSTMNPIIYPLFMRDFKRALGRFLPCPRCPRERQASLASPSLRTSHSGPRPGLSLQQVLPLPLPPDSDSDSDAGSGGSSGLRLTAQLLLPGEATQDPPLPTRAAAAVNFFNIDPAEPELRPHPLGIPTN
T4 sequence (P34969 whole entry): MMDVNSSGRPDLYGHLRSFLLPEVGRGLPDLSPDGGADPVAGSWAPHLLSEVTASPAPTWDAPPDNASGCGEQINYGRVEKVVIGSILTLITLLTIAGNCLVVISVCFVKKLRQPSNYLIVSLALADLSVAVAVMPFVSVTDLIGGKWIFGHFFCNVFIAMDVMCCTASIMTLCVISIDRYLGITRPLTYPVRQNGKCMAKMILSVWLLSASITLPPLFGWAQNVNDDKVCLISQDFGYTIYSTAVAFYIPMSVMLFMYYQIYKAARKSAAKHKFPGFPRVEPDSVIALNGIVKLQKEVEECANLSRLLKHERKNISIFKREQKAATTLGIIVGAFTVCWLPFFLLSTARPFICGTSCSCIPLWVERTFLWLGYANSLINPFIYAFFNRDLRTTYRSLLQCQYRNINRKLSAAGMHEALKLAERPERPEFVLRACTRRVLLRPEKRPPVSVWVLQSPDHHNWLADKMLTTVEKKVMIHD
T7 sequence (P14416 whole entry): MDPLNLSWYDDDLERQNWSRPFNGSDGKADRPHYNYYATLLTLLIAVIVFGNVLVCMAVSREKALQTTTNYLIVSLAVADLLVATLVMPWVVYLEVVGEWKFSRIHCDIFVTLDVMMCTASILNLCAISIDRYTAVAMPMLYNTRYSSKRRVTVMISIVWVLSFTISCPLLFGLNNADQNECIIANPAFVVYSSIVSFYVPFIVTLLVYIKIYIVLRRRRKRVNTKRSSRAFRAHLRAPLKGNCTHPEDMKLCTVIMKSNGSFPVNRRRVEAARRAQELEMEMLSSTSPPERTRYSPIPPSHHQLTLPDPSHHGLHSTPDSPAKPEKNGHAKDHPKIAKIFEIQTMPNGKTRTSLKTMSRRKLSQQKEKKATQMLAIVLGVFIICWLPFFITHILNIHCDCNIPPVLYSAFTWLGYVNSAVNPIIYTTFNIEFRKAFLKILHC
T5 sequence (P35367 whole entry): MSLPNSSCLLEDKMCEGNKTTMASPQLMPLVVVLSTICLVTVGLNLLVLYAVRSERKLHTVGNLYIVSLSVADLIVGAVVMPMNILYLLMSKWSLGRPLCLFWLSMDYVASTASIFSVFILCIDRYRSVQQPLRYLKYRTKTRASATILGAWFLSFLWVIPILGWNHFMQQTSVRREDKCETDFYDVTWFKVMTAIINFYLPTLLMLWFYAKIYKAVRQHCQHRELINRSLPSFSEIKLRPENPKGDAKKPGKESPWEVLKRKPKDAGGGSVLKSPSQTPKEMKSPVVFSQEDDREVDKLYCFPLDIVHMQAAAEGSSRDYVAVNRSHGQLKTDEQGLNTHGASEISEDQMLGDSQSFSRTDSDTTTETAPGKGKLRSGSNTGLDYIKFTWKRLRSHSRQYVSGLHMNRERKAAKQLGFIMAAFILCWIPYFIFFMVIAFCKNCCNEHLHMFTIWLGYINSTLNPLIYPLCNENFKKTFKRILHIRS
T1 sequence (P28223 whole entry): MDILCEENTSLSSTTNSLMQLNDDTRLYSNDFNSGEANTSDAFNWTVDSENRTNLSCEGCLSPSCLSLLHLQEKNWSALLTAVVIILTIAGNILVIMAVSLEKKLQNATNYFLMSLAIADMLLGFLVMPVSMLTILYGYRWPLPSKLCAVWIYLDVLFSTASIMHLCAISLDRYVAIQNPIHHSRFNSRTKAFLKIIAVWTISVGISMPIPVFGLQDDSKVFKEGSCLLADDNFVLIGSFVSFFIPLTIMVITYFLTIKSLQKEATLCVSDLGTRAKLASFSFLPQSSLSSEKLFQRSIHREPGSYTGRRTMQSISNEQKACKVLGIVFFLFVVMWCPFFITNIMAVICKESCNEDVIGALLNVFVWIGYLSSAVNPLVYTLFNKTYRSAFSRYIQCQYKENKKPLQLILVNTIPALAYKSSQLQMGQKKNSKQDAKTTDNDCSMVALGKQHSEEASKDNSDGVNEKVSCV

With `COc1ccc(C#Cn2c3c(c4cc(Cl)ccc42)CCN(C)C3)cc1F` [Compound 155, 6-chloro-9-((3-fluoro-4-methoxyphenyl)ethynyl)-2-methyl-2,3,4,9-tetrahydro-1H-pyrido[3,4-b]indole], the inhibition at 1 µM in [1] came to 85%; in assay [2], 49%; in assay [3], 14%; in assay [4] it was 19%; in [5] it was 2%; in assay [6] it was 95%. Further, the inhibition at 1 µM in assay [7] stood at 12%.

Take `CCC1c2c(c3cc(Cl)ccc3n2/C=C(\C)c2ccc(F)c(F)c2)CCN1C` (centres unmarked) [Compound 112, 6-chloro-9-(2-(3,4-difluorophenyl)prop-1-enyl)-1-ethyl-2-methyl-2,3,4,9-tetrahydro-1H-pyrido[3,4-b]indole]: the inhibition at 1 µM in assay [1] was determined as 82%; in [2], 38%; in [3] it was 61%; in assay [4], 67%; in assay [5], 33%; in [6], 94%. Besides, the inhibition at 1 µM in [7] was found to be 12%.

As for `C/C(=C\n1c2c(c3cc(Cl)ccc31)CCN(C)C2)c1ccc(F)c(F)c1` [Compound 110, 6-chloro-9-(2-(3,4-difluorophenyl)prop-1-enyl)-2-methyl-2,3,4,9-tetrahydro-1H-pyrido[3,4-b]indole], the inhibition at 1 µM in assay [1] was 93%; in assay [2], 64%; in assay [3], 73%; in [4] it was 87%; in assay [5] it was 25%; in assay [6] it was 97%. For the same molecule, the inhibition at 1 µM in assay [7] came out at 10%.

Take `Cc1ccc2c(c1)c1c(n2C#Cc2ccc(Cl)cc2)C(C)N(C)CC1` (centres unmarked) [Compound 172, 9-((4-chlorophenyl)ethynyl)-1,2,6-trimethyl-2,3,4,9-tetrahydro-1H-pyrido[3,4-b]indole]: the inhibition at 1 µM turned out to be 96% in assay [1]; 45% in assay [2]; 10% in [3]; 1% in [4]; 11% in [5]; 100% in assay [6]. For the same molecule, in [7], the inhibition at 1 µM amounted to 1%.

For `Cc1ccc2c(c1)c1c(n2CCc2ccc(C)nc2)CCN(C)C1` [Dimebon, dimebon], in [8], the mitochondrial function result is “improved mitochondrial function” and the “number of surviving cells” value is reported as “increased the number of surviving cells”. For the same molecule, the “death of brain cells (neurons)” value in assay [9] was “inhibit the death of brain cells (neurons)”. Moreover, the “neurite outgrowth and neurogenesis” value in assay [10] is “promote neurite outgrowth and neurogenesis”.
